According to article PMC12684391, “Mechanistic insights into the monotherapy and combination potential of FEN1 inhibition in cancer therapy” (Nucleic Acids Research, 2025):

Legend:
Type in all cases: cell-based
[1] = system: HCT-116, NCI-H460, SUM149PT, MDA-MB-436 cells; test: Combination viability assay (CTG, Bliss synergy); details: HRP (HCT-116, NCI-H460) and HRD (SUM149PT, MDA-MB-436) cells, 7 days
Description: (§1) For combination analysis, cells were seeded in 70 μl of media in 384-well plates pre-dosed with compounds (5-point dose–response matrix) with a D300e digital dispenser (Tecan). Cell proliferation was determined after 7 days using CTG. Analysis was performed with Genedata Screener (Compound Synergy Extension) to determine Synergy scores (Bliss model), using a formulation whereby the Blissexcess is a continuous value and values higher than 2 are usually considered synergistic, and values between 0 and 2 are usually considered additive.

DLD-1 WT cells = test: Combination viability assay (CTG, Bliss synergy); details: 7 days
Description: as §1

DLD-1 BRCA2KO cells = test: Combination viability assay (CTG, Bliss synergy); details: 7 days
Description: For combination analysis, cells were seeded in 70 μl of media in 384-well plates pre-dosed with compounds (5-point dose–response matrix) with a D300e digital dispenser (Tecan). Cell proliferation was determined after 7 days using CTG.

RD-ES cells = test: Combination viability assay (CTG, Bliss synergy); details: 7 days
[2] = system: SUM149PT 53BP1KO and SHLD2KO cells; test: Combination viability assay (CTG, Bliss synergy); details: SUM149PT with 53BP1 or SHLD2 genetically ablated, 7 days
Description: as §1

[3] = system: SUM149PT 53BP1KO and SHLD2KO cells; test: Cell viability assay (CTG), 7 days, PARP inhibitor resistant models; details: less sensitive than parental
Description: Cells were seeded in 150 μl of media in 96-well plates or in 70 μl of media in 384-well plates pre-dosed with compounds (8–10 points dose response) with a D300e digital dispenser (Tecan) and incubated for 24 h at 37°C and 5% CO2. Cell proliferation at the end of the assay (7 days) was measured using CTG (Promega, G9243). CTG luminescence was normalized to vehicle treated control for each cell line, and data were fitted with a nonlinear regression curve (four parameters) to generate compound sensitivity curves and determine IC50 or EC50 (half maximal inhibitory/effective concentration) values as indicated.

COc1ncnc(C2CC2)c1-c1ncc2cnn(Cc3ccc(-c4nc(C(F)(F)F)cn4C(C)C)cc3)c2n1 [KSQ-4279]
Combination benefit with MSC778 [1]: particularly strong

Cc1nc(C)c(Cn2c(=O)n(-c3ncns3)c3cc(S(=O)(=O)NC4(C)CC4)ccc32)s1 [PDD00017238]
Combination benefit with MSC778 [1]: particularly strong
Combination effect with MSC778 (DLD-1 WT cells): Synergistic

Cn1cncc1-c1c(F)cncc1NC(=O)c1c(N)nn2cc(F)cnc12 [Tuvusertib]
Combination effect with MSC778 (DLD-1 BRCA2KO cells): at best weakly additive

NC(=O)c1cccc2cn(-c3ccc([C@@H]4CCCNC4)cc3)nc12 [niraparib]
Combination effect with MSC778 (RD-ES cells): combination benefit

O=C(c1cc(Cc2n[nH]c(=O)c3ccccc23)ccc1F)N1CCN(C(=O)C2CC2)CC1 [olaparib]
Combination effect with MSC778 (RD-ES cells): combination benefit
Combination effect with MSC778 [2]: synergized

Cn1ncnc1[C@H]1c2n[nH]c(=O)c3cc(F)cc(c23)N[C@@H]1c1ccc(F)cc1 [talazoparib, reference compound]
Combination effect with MSC778 [2]: synergized
Change in sensitivity of SUM149PT 53BP1KO and SHLD2KO cells versus parental cells [3]: ~20 fold

C[C@]1(c2nc3c(C(N)=O)cccc3[nH]2)CCCN1 [veliparib]
Combination effect with MSC778 (RD-ES cells): combination benefit

PDD00017273
Combination effect with MSC778 (RD-ES cells): limited to additivity
Combination effect with MSC778 (DLD-1 WT cells): Synergistic
